According to patent US7622551B2, “Leukocyte stimulating peptides” (POSCO, priority 2004, dated 2009):
Where no end group is shown, it is not given here.

How the values were obtained:
[1] = test system: differentiated HL60 cells; test: Arachidonic acid (AA) release in [3H]AA-labeled dHL60 cells; assay type: cell-based, human; conditions: for Folds of increase (% of total), arachidonic acid release: differentiated HL60 cells, 10 μM of peptide; for AA release stimulating activity (in words) / Inhibition of AA release induced by P14, P18, P21, P24: dHL60 cells; for AA release stimulating activity (in words): 10 μM; for Inhibition of AA release induced by P14, P18, P21, P24: 1 μM peptide, MAFP, AACOCF3, BEL at 10 μM
Method: (§1) U937 (human histiocytic lymphoma cells), HL60 (human promyelocytic leukemia cells), Raw 264.7 (mouse macrophage), Jurkat (human acute T cell leukemia), PC12 (rat adrenal pheochromocytoma cells), 3Y1 (Rat embryonic fibroblasts), 3T3L1 (preadipocytes), and NCI-H292 (human mucoepidermoid pulmonary carcinoma cells) were obtained from the American Type Culture Collection (Rockville, Md.) and maintained as recommended. FPR- or FPRL1 expressing RBL-2H3 cells were cultured as described previously (He et al. J. Immunol. 2000. 165: 4598-4605). Cells were maintained at about 1×10^6 cells/ml under standard incubator conditions (humidified atmosphere, 95% air, 5% CO2, at 37° C.). HL60 cells were induced to differentiate into the granulocyte phenotype by adding dimethylsulfoxide (DMSO) (final concentration 1.25%, v/v) for 4 days to the culture medium, as described previously (Itoh et al. Blood. 1998. 92: 1432-1441).
For the initial screening of the PS-SPCLs, we measured the AA release stimulating activity of each peptide pool. Cultured dHL60 cells (10^7 cells/ml) were pre-labeled with 0.5 μCi/ml of (^3H)-AA in RPMI 1640 medium containing 10% FBS for 90 min at 37° C. in a humidified incubator supplied with 95% air and 5% CO2, as described previously (Bae et al. J. Immunol. 2000. 164: 4089-4096). The labeled cells were then washed twice with serum-free RPMI 1640 and incubated in RPMI 1640 medium containing 0.1% fatty acid-free BSA for 15 min at 37° C. After discarding the medium, the cells were stimulated with various concentrations of peptide for the indicated times. Radioactivity in the medium and of collected cells was determined with a liquid scintillation counter. When investigating the effects of inhibitors, cells were preincubated with the indicated concentrations of each inhibitor or vehicle for 15 min prior to stimulation.

[2] = test system: differentiated HL60 cells; test: [Ca2+]i increase in fura-2 loaded dHL60 cells; assay type: cell-based, human; conditions: for [Ca^2+]i: differentiated HL60 cells, fura-2, 1 μM of peptide; for Concentration of maximal activity, [Ca^2+]i increase: data not shown
Method: as §1
(§2) The level of [Ca^2+]i was determined using Grynkiewicz's method using fura-2/AM (Grynkiewicz et al. J. Biol. Chem. 1985. 260: 3440-3550). Briefly, prepared cells were incubated with 3 μM of fura-2/AM at 37° C. for 50 min in serum-free RPMI 1640 medium under continuous stirring. 2×10^6 cells were aliquoted for each assay in Ca^2+ free Locke's solution (154 mM NaCl, 5.6 mM KCl, 1.2 mM MgCl2, 5 mM HEPES, pH 7.3, 10 mM glucose, and 0.2 mM EGTA). Fluorescence changes were measured at the dual excitation wavelength of 340 nm and 380 nm, and the calculated fluorescence ratio was translated into [Ca^2+]i.

human neutrophils = test: Superoxide generation (cytochrome c reduction) in human neutrophils; assay type: cell-based
Method: Peripheral blood leukocyte concentrates were donated by the Ulsan Red Cross Blood Center (Ulsan, Korea). PBMCs were separated on a Histopaque-1077 gradient. After two washings with HBSS without Ca^2+ and Mg^2+, the PBMCs were suspended in 10% FBS containing RPMI and incubated for 60 min at 37° C. to let the monocytes attach to the culture dish. Cells were washed 5 times with warmed RPMI medium to remove lymphocytes, and then the attached monocytes were collected, as described previously (Bae et al. J. Leukoc. Biol. 1999. 65: 241-248). Human neutrophils were isolated according to standard procedures; i.e., dextran sedimentation, hypotonic lysis of erythrocytes, and using a medium lymphocyte separation gradient, as described previously (Seo et al. J. Immunol. 1997. 158: 1895-1901). Isolated human leukocytes were then used promptly.
We determined superoxide anion generation by measuring cytochrome c reduction using a microtiter 96 well plate ELISA reader (Bio-Tekinstruments, EL312e, Winooski, Vt.) as described previously (Bae et al. Blood. 2001. 97: 2854-2862). Human neutrophils (1×10^6 cells/100 μl of RPMI 1640 medium per well of a 96-well plate) were preincubated with 50 μM of cytochrome c at 37° C. for 1 min and then incubated with the indicated peptide concentrations. Superoxide generation was determined from change in light absorption at 550 nm over 5 minutes at 1 min intervals.

[3] = test system: undifferentiated HL60 cells; test: [Ca2+]i increase in undifferentiated HL60 cells; assay type: cell-based, human; conditions: peptides 10 μM (FIG. 8)
Method: as §1, §2

human monocytes = test: Chemotaxis assay (modified Boyden chamber), monocytes; assay type: cell-based; conditions: FIG. 6B; control peptide at concentrations less than 10 μM
Method: FIGS. 6A and 6B show chemotactic effect of peptides. Assays were performed using a modified Boyden chamber assay, as described in the Examples. Isolated human neutrophils (A) or monocytes (B) (1×10^6 cells/ml in serum free RPMI) were added to the upper wells of a 96-well chemotaxis chamber and migration across a 3 μm pore size (5 μm for monocytes) polycarbonate membrane was assessed after 2 hrs incubation at 37° C. The numbers of migrated cells were determined by counting them in a high power field (400×). Results are presented as means±S.E. of three independent experiments each performed in duplicate.
Chemotaxis assays were performed using multiwell chambers (Neuroprobe Inc., Gaithersburg, Md.) (Bae et al. Blood. 2001. 97: 2854-2862). Briefly, prepared human monocytes were suspended in RPMI at a concentration of 1×10^6 cells/ml, and 25 μl of the suspension was then placed onto the upper well of a chamber separated by a 5 μm polyhydrocarbon filter (3 μm pores size not polyvinylpyrrolidone coated, as is needed for neutrophils) from peptides or N-formyl-methionyl-leucyl-phenylalanine (fMLF) in the lower well. After incubation for 2 hours (90 minutes for neutrophils) at 37° C., non-migrated cells were removed by scraping, and cells that migrated across the filter were dehydrated, fixed, and stained with hematoxylin (Sigma, St. Louis, Mo.). Stained cells were counted in five randomly chosen high power fields (HPF) (400×) (Bae et al. Blood. 2001. 97: 2854-2862).

Row | Compound | Folds of increase (% of total), arachidonic acid release [1] [folds] | [Ca^2+]i [2] [nM] | AA release stimulating activity (in words) [1] | further results
1 | KKHYPM-NH2 [Peptide P4] | 1.41 ± 0.247 | 14 ± 4.1 | – | –
2 | KKYYKM-NH2 [Peptide P9] | 1.49 ± 0.268 | 85 ± 15.8 | – | –
3 | KKYYYM-NH2 [Peptide P12] | 2.58 ± 0.168 | 153 ± 13.2 | most potent | Concentration of maximal activity, [Ca^2+]i increase ([2]; dHL60 cells): approximately 3 μM
4 | CC(=O)OCOC(=O)CN(CC(=O)OCOC(C)=O)c1ccccc1OCCOc1ccccc1N(CC(=O)OCOC(C)=O)CC(=O)OCOC(C)=O [BAPTA/AM, reference compound] | – | – | – | Inhibition of AA release induced by P14, P18, P21, P24 [1]: inhibited
5 | RKYYKM-NH2 [Peptide P15] | 1.71 ± 0.214 | 77 ± 12.1 | – | –
6 | KKHYKM-NH2 [Peptide P3] | 1.45 ± 0.306 | 8 ± 3.2 | – | –
7 | MKYYPM-NH2 [Peptide P22] | 2.95 ± 0.668 | 168 ± 21.6 | most potent | Concentration of maximal activity, [Ca^2+]i increase ([2]; dHL60 cells): approximately 3 μM
8 | CCCCC/C=C\C/C=C\C/C=C\C/C=C\CCCC(=O)C(F)(F)F [AACOCF3, reference compound] | – | – | – | Inhibition of AA release induced by P14, P18, P21, P24 [1]: almost completely prevented
9 | MKYYVM-NH2 [Peptide P23] | 3.05 ± 0.401 | 153 ± 13.2 | most potent | Concentration of maximal activity, [Ca^2+]i increase ([2]; dHL60 cells): approximately 3 μM
10 | KKYYVM-NH2 [Peptide P11] | 2.49 ± 0.023 | 158 ± 25.3 | most potent | Concentration of maximal activity, [Ca^2+]i increase ([2]; dHL60 cells): approximately 3 μM
11 | KKHHKM-NH2 [Peptide P1] | 1.25 ± 0.168 | 0 | – | [Ca^2+]i increase (in words) ([2]; dHL60 cells, 1 μM): did not affect
12 | RKYHKM-NH2 [Peptide P13] | 1.47 ± 0.220 | 10 ± 4.2 | – | –
13 | KKHHVM-NH2 [Peptide P2] | 1.23 ± 0.153 | 0 | – | –
14 | KKYHKM-NH2 [Peptide P7] | 1.42 ± 0.226 | 0 | – | [Ca^2+]i increase (in words) ([2]; dHL60 cells, 1 μM): did not affect
15 | CSCC[C@H](NC=O)C(=O)N[C@@H](CC(C)C)C(=O)N[C@@H](Cc1ccccc1)C(=O)O [fMLF, N-formyl-methionyl-leucyl-phenylalanine, reference compound] | – | – | – | Superoxide production (human neutrophils; 1 μM of peptide, cytochrome c reduction): 26.5 ± 1.32 nmole/10^6 cells; [Ca^2+]i increase in undifferentiated HL60 cells [3]: did not affect
16 | KKYHVM-NH2 [Peptide P8] | 1.30 ± 0.170 | 31 ± 3.5 | – | –
17 | KKHYYM-NH2 [Peptide P6] | 1.52 ± 0.296 | 50 ± 11.7 | – | –
18 | CCCCC[C@H](O)/C=C/C=C\C=C\C=C\[C@@H](O)[C@@H](O)CCCC(=O)O [lipoxin A4, reference compound] | – | – | – | [Ca^2+]i increase in undifferentiated HL60 cells [3]: did not affect
19 | KKHYVM-NH2 [Peptide P5] | 1.68 ± 0.390 | 34 ± 9.5 | – | –
20 | O=C1O/C(=C/Br)CCC1c1cccc2ccccc12 (stereo not shown) [BEL, reference compound] | – | – | – | Inhibition of AA release induced by P14, P18, P21, P24 [1]: did not interfere
21 | MKYHVM-NH2 [Peptide P20] | 2.55 ± 0.271 | 155 ± 16.3 | most potent | –
22 | MKYHKM-NH2 [Peptide P19] | 1.68 ± 0.221 | 13 ± 3.0 | – | –
23 | KKYYPM-NH2 [Peptide P10] | 2.27 ± 0.199 | 152 ± 28.7 | most potent | Concentration of maximal activity, [Ca^2+]i increase ([2]; dHL60 cells): approximately 3 μM
24 | RKYYPM-NH2 [Peptide P16] | 2.57 ± 0.450 | 135 ± 21.4 | most potent | Concentration of maximal activity, [Ca^2+]i increase ([2]; dHL60 cells): approximately 3 μM
25 | Nc1ncnc2c1ncn2[C@@H]1O[C@H](COP(=O)(O)OP(=O)(O)OP(=O)(O)O)[C@@H](O)[C@H]1O [ATP, reference compound] | – | – | – | [Ca^2+]i increase (in words) ([2]; dHL60 cells, 500 μM of ATP (FIG. 4)): stimulated; Effect of PTX on agonist-induced [Ca^2+]i rise ([2]; dHL60 cells, PTX 150 ng/ml for 20 hr): not inhibited
26 | RKYYVM-NH2 [Peptide P17] | 2.82 ± 0.210 | 143 ± 10.2 | most potent | Superoxide generation (in words) (human neutrophils): stimulate superoxide generation in a concentration-dependent manner; Concentration of maximal activity, [Ca^2+]i increase ([2]; dHL60 cells): approximately 3 μM; Cellular chemotaxis in human monocytes (in words) (human monocytes): induced cellular chemotaxis
